# Test system: S. mutans bacterial suspension (ATCC 25175)
# Test: Direct contact test (DCT) in bonding resin R2
# Format: cell-based
# Details: 0.5% by weight in resin R2
# Description: The DCT test is based on the turbidimetric determination of bacterial growth in 96-well microplates.
# On the wall of each well, 15 μL of the resin to be tested are polymerized for 40 s, using a VALO® Grand LED curing light (Ultradent, Milan, Italy) in standard mode (1000 mW/cm^2, 2 maximum of emission in the ranges of wavelengths 395-415 nm and 440-480 nm);
# In this way the side walls of the wells are coated with the polymerized material under test. The wells are then washed with phosphate buffered saline (PBS) before inoculating them with bacteria. Keeping the plate in vertical position, 10 μL of S. mutans bacterial suspension (ATCC 25175) in brain heart infusion medium (BHI) from an o/n culture, is then deposited on the layer of material present on the side walls of the wells. The plate is held upright for 1 hour to allow direct contact between bacteria and the cured material. 200 μL culture broth is then added to each of the wells with gentle mixing. The microplate is then placed in the chamber of a spectrophotometer for ELISA plates reading at 37° C. and the optical density in each well is measured at 600 nm at regular intervals (every 30 minutes for 18 hours). The whole experiment is conducted under aseptic conditions and is repeated on three microplates to ensure reproducibility of the result. 24 wells for each microplate were tested for each sample.
# The bactericidal properties of the compounds according to Examples 1, 5, 6 and 7 within a reference bonding resin called R2 were tested using the “Direct contact test (DCT)” method described above. As a negative reference, the reference bonding resin was used without adding compounds according to the invention.
# The reference resin called R2 has the following composition (% by weight): • 70% Bis-GMA (bisphenol A glycidyl dimethacrylate, CAS 1565-94-2, Sigma-Aldrich); • 28.75% TEGDMA (triethylene glycol dimethacrylate, CAS 109-16-0, Sigma-Aldrich); • 0.25% CQ (Camphorquinone, CAS 10373-78-1, Sigma-Aldrich); • 1% EDMAD (ethyl-4-dimethylamino benzoate, CAS 10287-53-3, Sigma-Aldrich) and was diluted with 20% by weight of EtOH for use.
# For the tests execution, different quantities of the compounds according to examples 1, 5, 6 and 7 were added to the resin R2 in a quantity range from 0.1 to 10% by weight. The homogeneity of the material to be tested was ensured before application in the wells by carrying out a sonication (50%, 5 min) and mixing with Vortex (800 rpm, 5 min) of the various resins added with the compound according to the invention.
row,SMILES,inhibition of bacterial survival by contact (optical density)
1,C=C(C)C(=O)Nc1ccc([N+](C)(C)CCCCCCCCCCCC[N+](C)(C)c2ccc(NC(=O)C(C)=O)cc2)cc1.[Br-].[Br-] [Example 6],able to inhibit bacterial survival by contact

# Same assay, conditions: 1% by weight in resin R2
row,SMILES,inhibition of bacterial survival by contact (optical density)
1,C=C(C)C(=O)OCC[N+](C)(C)CCCCCCCCCCCC[N+](C)(C)CCOC(=O)C(=C)C.[Br-].[Br-] [Example 1],able to inhibit bacterial survival by contact

# Test system: E. coli (ATCC25922)
# Test: Determination of the minimum inhibitory concentration (MIC)
# Format: cell-based
# Details: Escherichia coli
# Description: (§1) A colony of bacterium taken from agar plate is inoculated in Brain Hearth Infusion medium (BHI) and grown overnight at 37° C. The next day, the bacteria are diluted in fresh medium containing the phenol red indicator, up to a density of 10^6 bacteria/mL.
# (§2) A stock solution of 2 mg/mL of compound is prepared in BHI medium containing phenol red.
# (§3) In a 96-well plate, the compound stock solution is diluted serially (the concentration is halved at each step) to obtain the following final concentrations after addition of the bacteria suspension: 1 mg/mL; 0.5 mg/mL; 0.25 mg/mL; 0.125 mg/mL; 0.065 mg/mL; 0.032 mg/mL; 0.016 mg/mL; 0.008 mg/mL; 0.004 mg/mL; 0.002 mg/mL; 0.001 mg/mL. A compound-free medium is used as a growth control. A volume of bacterial suspension equal to 0.5*10^6 bacteria/mL is added to each well containing the compound and the control. The dish is incubated at 37° C. for 24 hours. Bacterial growth in each well is detected by the phenol red, which turns from red to yellow following acidification of the medium induced by bacterial metabolism. The lowest concentration of the compound causing no evident color change corresponds to the MIC.
# (§4) The compounds according to Examples 1, 3, 5, 6, and 7 were tested on bacterial strains different from S. mutans with the same methods described above, obtaining the MIC and MBC values reported in Table 2.
row,SMILES,MIC [µg/mL]
1,C=C(C)C(=O)OCC[N+](C)(C)CCCCCCCCCCCC[N+](C)(C)CCOC(=O)C(=C)C.[Br-].[Br-] [Example 1],625
2,C=C(C)C(=O)Nc1ccc([N+](C)(C)CCCCCCCCCCCC[N+](C)(C)c2ccc(NC(=O)C(C)=O)cc2)cc1.[Br-].[Br-] [Example 6],2

# Test system: S. Aureus (ATCC 25923)
# Test: as above
# Format: cell-based
# Details: Staphylococcus aureus, ATCC25923
# Description: as §1, §2, §3, §4
row,SMILES,MIC [µg/mL]
1,C=C(C)C(=O)OCC[N+](C)(C)CCCCCCCCCCCC[N+](C)(C)CCOC(=O)C(=C)C.[Br-].[Br-] [Example 1],156
2,C=C(C)C(=O)Nc1ccc([N+](C)(C)CCCCCCCCCCCC[N+](C)(C)c2ccc(NC(=O)C(C)=O)cc2)cc1.[Br-].[Br-] [Example 6],10

# Test system: S. Sanguis (ATCC 10556)
# Test: as above
# Format: cell-based
# Details: not given
# Description: as §1, §2, §3, §4
row,SMILES,MIC [µg/mL]
1,C=C(C)C(=O)OCC[N+](C)(C)CCCCCCCCCCCC[N+](C)(C)CCOC(=O)C(=C)C.[Br-].[Br-] [Example 1],310
2,C=C(C)C(=O)Nc1ccc([N+](C)(C)CCCCCCCCCCCC[N+](C)(C)c2ccc(NC(=O)C(C)=O)cc2)cc1.[Br-].[Br-] [Example 6],5

# Test system: S. Mitis (ATCC 49456)
# Test: as above
# Format: cell-based
# Details: Streptococcus mitis, ATCC49456
# Description: as §1, §2, §3, §4
row,SMILES,MIC [µg/mL]
1,C=C(C)C(=O)OCC[N+](C)(C)CCCCCCCCCCCC[N+](C)(C)CCOC(=O)C(=C)C.[Br-].[Br-] [Example 1],310
2,C=C(C)C(=O)Nc1ccc([N+](C)(C)CCCCCCCCCCCC[N+](C)(C)c2ccc(NC(=O)C(C)=O)cc2)cc1.[Br-].[Br-] [Example 6],10

# Test system: primary cells from human dental pulp
# Test: Determination of the cytotoxicity (MTS assay)
# Format: cell-based
# Details: not given
# Description: Tested cells: primary from dental pulp in complete high glucose DMEM medium+1 mg ascorbic acid, seeded in 96-well dishes;
# Cell viability detection method: MTS assay from Promega (CellTiter 96® AQueous One Solution Cell Proliferation Assay) colorimetric metabolic assay that allows to evaluate variations in the number of cells being a dye reduced by cellular dehydrogenases. The greater the number of cells, the greater the amount of reduced compound;
# Execution time: 24 hours and 72 hours from treatment;
# Negative control: cells seeded in complete DMEM medium (CNT) are used;
# Number of samples: for 24 hours, 6 samples of each type; for 72 hours 8 samples of each type.
# Procedure: Cells (6000/well) are seeded on a 96-well dish to form a monolayer at approximately 40% confluence. After 24 hours the medium is replaced by a medium in which the compound has previously been solubilized, sterilized by 0.22 micron filtration. Growth medium alone is used as a negative control (CNT). At the following 24 and 72 hours the colorimetric test is performed. The absorbance values for each sample are averaged and the standard deviation calculated. The percent viability is calculated on the negative control.
# The compounds according to Examples 1, 5, 6, and 7 were tested in order to evaluate their cytotoxicity on primary cells from human dental pulp according to the “Determination of cytotoxicity” method described above, obtaining the values reported respectively in the following Tables 3, 4, 5, and 6. Cells were extracted from healthy third molars of patients after informed consent (Authorization Single Regional Committee FVG, study ID 2433, 29 Aug. 2018). After extraction, the stem cell nature was ascertained by evaluating the expression of the positive markers CD 90, CD 73, CD 29 and the negative markers CD 14, CD 34 and CD 45.
row,SMILES,decrease in cell viability
1,C=C(C)C(=O)OCC[N+](C)(C)CCCCCCCCCCCC[N+](C)(C)CCOC(=O)C(=C)C.[Br-].[Br-] [Example 1],did not show significant signs of decrease in cell viability

# Same assay, conditions: 1 μg/mL, 24 h
row,SMILES,% Viability 24 h [%]
1,C=C(C)C(=O)Nc1ccc([N+](C)(C)CCCCCCCCCCCC[N+](C)(C)c2ccc(NC(=O)C(C)=O)cc2)cc1.[Br-].[Br-] [Example 6],95.2 ± 13.2

# Same assay, conditions: 1 μg/mL, 72 h
row,SMILES,% Viability 72 h [%]
1,C=C(C)C(=O)Nc1ccc([N+](C)(C)CCCCCCCCCCCC[N+](C)(C)c2ccc(NC(=O)C(C)=O)cc2)cc1.[Br-].[Br-] [Example 6],103.2 ± 18.9

# Same assay, conditions: 10 μg/mL, 24 h
row,SMILES,% Viability 24 h [%]
1,C=C(C)C(=O)OCC[N+](C)(C)CCCCCCCCCCCC[N+](C)(C)CCOC(=O)C(=C)C.[Br-].[Br-] [Example 1],95.3 ± 12.5
2,C=C(C)C(=O)Nc1ccc([N+](C)(C)CCCCCCCCCCCC[N+](C)(C)c2ccc(NC(=O)C(C)=O)cc2)cc1.[Br-].[Br-] [Example 6],99.5 ± 13.5

# Same assay, conditions: 10 μg/mL, 72 h
row,SMILES,% Viability 72 h [%]
1,C=C(C)C(=O)OCC[N+](C)(C)CCCCCCCCCCCC[N+](C)(C)CCOC(=O)C(=C)C.[Br-].[Br-] [Example 1],110.0 ± 13.8
2,C=C(C)C(=O)Nc1ccc([N+](C)(C)CCCCCCCCCCCC[N+](C)(C)c2ccc(NC(=O)C(C)=O)cc2)cc1.[Br-].[Br-] [Example 6],97.7 ± 14

# Same assay, conditions: 50 μg/mL, 24 h
row,SMILES,% Viability 24 h [%]
1,C=C(C)C(=O)OCC[N+](C)(C)CCCCCCCCCCCC[N+](C)(C)CCOC(=O)C(=C)C.[Br-].[Br-] [Example 1],105.6 ± 11.2
2,C=C(C)C(=O)Nc1ccc([N+](C)(C)CCCCCCCCCCCC[N+](C)(C)c2ccc(NC(=O)C(C)=O)cc2)cc1.[Br-].[Br-] [Example 6],81.7 ± 8.2

# Same assay, conditions: 50 μg/mL, 72 h
row,SMILES,% Viability 72 h [%]
1,C=C(C)C(=O)OCC[N+](C)(C)CCCCCCCCCCCC[N+](C)(C)CCOC(=O)C(=C)C.[Br-].[Br-] [Example 1],111.0 ± 7.2
2,C=C(C)C(=O)Nc1ccc([N+](C)(C)CCCCCCCCCCCC[N+](C)(C)c2ccc(NC(=O)C(C)=O)cc2)cc1.[Br-].[Br-] [Example 6],71.5 ± 16.3

# Same assay, conditions: 100 μg/mL, 24 h
row,SMILES,% Viability 24 h [%]
1,C=C(C)C(=O)OCC[N+](C)(C)CCCCCCCCCCCC[N+](C)(C)CCOC(=O)C(=C)C.[Br-].[Br-] [Example 1],102.7 ± 7.2
2,C=C(C)C(=O)Nc1ccc([N+](C)(C)CCCCCCCCCCCC[N+](C)(C)c2ccc(NC(=O)C(C)=O)cc2)cc1.[Br-].[Br-] [Example 6],11.3 ± 2.1

# Same assay, conditions: 100 μg/mL, 72 h
row,SMILES,% Viability 72 h [%]
1,C=C(C)C(=O)OCC[N+](C)(C)CCCCCCCCCCCC[N+](C)(C)CCOC(=O)C(=C)C.[Br-].[Br-] [Example 1],122.4 ± 7.0
2,C=C(C)C(=O)Nc1ccc([N+](C)(C)CCCCCCCCCCCC[N+](C)(C)c2ccc(NC(=O)C(C)=O)cc2)cc1.[Br-].[Br-] [Example 6],2.0 ± 0.8

# Same assay, conditions: 500 μg/mL, 24 h
row,SMILES,% Viability 24 h [%]
1,C=C(C)C(=O)OCC[N+](C)(C)CCCCCCCCCCCC[N+](C)(C)CCOC(=O)C(=C)C.[Br-].[Br-] [Example 1],86.6 ± 5.5
2,C=C(C)C(=O)Nc1ccc([N+](C)(C)CCCCCCCCCCCC[N+](C)(C)c2ccc(NC(=O)C(C)=O)cc2)cc1.[Br-].[Br-] [Example 6],1.6 ± 0.9

# Same assay, conditions: 500 μg/mL, 72 h
row,SMILES,% Viability 72 h [%]
1,C=C(C)C(=O)OCC[N+](C)(C)CCCCCCCCCCCC[N+](C)(C)CCOC(=O)C(=C)C.[Br-].[Br-] [Example 1],115.3 ± 11.6
2,C=C(C)C(=O)Nc1ccc([N+](C)(C)CCCCCCCCCCCC[N+](C)(C)c2ccc(NC(=O)C(C)=O)cc2)cc1.[Br-].[Br-] [Example 6],2.6 ± 3.6

# Same assay, conditions: 1 mg/mL, 24 h
row,SMILES,% Viability 24 h [%]
1,C=C(C)C(=O)Nc1ccc([N+](C)(C)CCCCCCCCCCCC[N+](C)(C)c2ccc(NC(=O)C(C)=O)cc2)cc1.[Br-].[Br-] [Example 6],2.5 ± 0.9

# Same assay, conditions: 1 mg/mL, 72 h
row,SMILES,% Viability 72 h [%]
1,C=C(C)C(=O)Nc1ccc([N+](C)(C)CCCCCCCCCCCC[N+](C)(C)c2ccc(NC(=O)C(C)=O)cc2)cc1.[Br-].[Br-] [Example 6],3.5 ± 1.5

# Same assay, conditions: 2 mg/mL, 24 h
row,SMILES,% Viability 24 h [%]
1,C=C(C)C(=O)OCC[N+](C)(C)CCCCCCCCCCCC[N+](C)(C)CCOC(=O)C(=C)C.[Br-].[Br-] [Example 1],80.6 ± 5.3

# Same assay, conditions: 2 mg/mL, 72 h
row,SMILES,% Viability 72 h [%]
1,C=C(C)C(=O)OCC[N+](C)(C)CCCCCCCCCCCC[N+](C)(C)CCOC(=O)C(=C)C.[Br-].[Br-] [Example 1],76.9 ± 8.4

# Source: patent US20220402872A1, “PHOTOPOLYMERIZABLE ANTIBACTERIAL MONOMER” (UNIVERSITA' DEGLI STUDI DI TRIESTE, priority 2019, published 2022)
